Laboratory results taken from US20010044445A1, “AZOLE INHIBITORS OF CYTOKINE PRODUCTION” (priority 1999, published 2001).
pIC50: −log10 of the molar value.

Legend:
[1] = test system: Human peripheral blood mononuclear cells; assay: Human Concanavalin-A Proliferation Assay (Con HU Assay); format: cell-based; details: Homo sapiens, PBMC, concanavalin-A stimulated human PBMC; for inhibition at 10 µM / inhibition at 1 µM / inhibition at 100 µM: 72 h, 3 days, read-out: % Inhibition of proliferation (at concentrations of 1,10, or 100 μm); for inhibition at 10 µM: concentration 10 μm (in parentheses in the cell); for pIC50: tritiated thymidine; for inhibition at 1 µM: concentration 1 μm (in parentheses in the cell); for inhibition at 100 µM: concentration 100 μm (in parentheses in the cell)
Outline: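 Histopaque-isolated human PBMC (50,000/well) were pre-incubated 15 min with compounds, then stimulated with concanavalin-A at 2.5 μg/ml final for 3 days at 37 °C, 5% CO2. Proliferation measured by 6 h pulse with 0.5 μCi/well [3H]thymidine and beta counting.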

melting point | SMILES | inhibition at 10 µM [1] | pIC50 [1] | inhibition at 1 µM [1] | inhibition at 100 µM [1]
160 to 162 °C | O=C(Nc1ccc(-n2nc(C(F)(F)F)cc2C(F)(F)F)cc1)c1cc(F)c(Cl)cc1F [Example 225, N-[4-[3,5-bis(trifluoromethyl)-1H-pyrazol-1-yl]phenyl]-4-chloro-2,5-difluorobenzamide] | 98% | 6.81 | – | –
122 to 124 °C | O=C(Nc1ccc(-n2nc(C(F)(F)F)cc2C(F)(F)F)cc1)c1ccc(F)c(F)c1F [Example 226, N-[4-[3,5-bis(trifluoromethyl)-1H-pyrazol-1-yl]phenyl]-2,3,4-trifluorobenzamide] | 100% | 7.37 | – | –
158 to 159 °C | O=C(Nc1ccc(-n2nc(C(F)(F)F)cc2C(F)(F)F)cc1)c1cc(F)c(F)c(F)c1 [Example 227, N-[4-[3,5-bis(trifluoromethyl)-1H-pyrazol-1-yl]phenyl]-3,4,5-trifluorobenzamide] | 100% | 6.59 | – | –
109 to 111 °C | O=C(Nc1ccc(-n2nc(C(F)(F)F)cc2C(F)(F)F)cc1)c1cc(F)c(F)cc1F [Example 228, N-[4-[3,5-bis(trifluoromethyl)-1H-pyrazol-1-yl]phenyl]-2,4,5-trifluorobenzamide] | 99% | 6.83 | – | –
183 to 185 °C | O=C(Nc1ccc(-n2nc(C(F)(F)F)cc2C(F)(F)F)cc1)c1c(F)cc(F)cc1F [Example 229, N-[4-[3,5-bis(trifluoromethyl)-1H-pyrazol-1-yl]phenyl]-2,4,6-trifluorobenzamide] | 99% | 7.40 | – | –
187 to 189 °C | O=C(Nc1ccc(-n2nc(C(F)(F)F)cc2C(F)(F)F)cc1)c1c(F)ccc([N+](=O)[O-])c1F [Example 230, N-[4-[3,5-bis(trifluoromethyl)-1H-pyrazol-1-yl]phenyl]-2,6-difluoro-3-nitrobenzamide] | – | – | 64% | –
169 to 170 °C | O=C(Nc1ccc(-n2nc(C(F)(F)F)cc2C(F)(F)F)cc1)c1cc(F)cc(F)c1F [Example 231, N-[4-[3,5-bis(trifluoromethyl)-1H-pyrazol-1-yl]phenyl]-2,3,5-trifluorobenzamide] | 100% | 7.60 | – | –
185 to 188 °C | O=C(Nc1ccc(-n2nc(C(F)(F)F)cc2C(F)(F)F)cc1)c1c(F)cc(Cl)cc1Cl [Example 232, N-[4-[3,5-bis(trifluoromethyl)-1H-pyrazol-1-yl]phenyl]-2,4-dichloro-6-fluorobenzamide] | 99% | 6.76 | – | –
235 to 237 °C | O=C(Nc1ccc(-n2nc(C(F)(F)F)cc2C(F)(F)F)cc1)c1c(F)c(F)cc(F)c1F [Example 234, N-[4-[3,5-bis(trifluoromethyl)-1H-pyrazol-1-yl]phenyl]-2,3,5,6-tetrafluorobenzamide] | 99% | 7.21 | – | –
138 to 140 °C | O=C(Nc1ccc(-n2nc(C(F)(F)F)cc2C(F)(F)F)cc1)c1cc(F)c(F)c(F)c1F [Example 235, N-[4-[3,5-bis(trifluoromethyl)-1H-pyrazol-1-yl]phenyl]-2,3,4,5-tetrafluorobenzamide] | 100% | 6.97 | – | –
188 to 189 °C | Cc1ccc([N+](=O)[O-])c(C(=O)Nc2ccc(-n3nc(C(F)(F)F)cc3C(F)(F)F)cc2)c1 [Example 237, N-[4-[3,5-bis(trifluoromethyl)-1H-pyrazol-1-yl]phenyl]-5-methyl-2-nitrobenzamide] | – | 6.43 | – | 100%
133 to 134 °C | N#Cc1ccc(C(=O)Nc2cccc(-n3nc(C(F)(F)F)cc3C(F)(F)F)c2)cc1 [Example 238, N-[3-[3,5-bis(trifluoromethyl)-1H-pyrazol-1-yl]phenyl]-4-cyanobenzamide] | – | – | 3% | –
239 to 240 °C | O=C(Nc1ccc(-n2nc(C(F)(F)F)cc2C(F)(F)F)cc1)c1ccsc1 [Example 239, N-[4-[3,5-bis(trifluoromethyl)-1H-pyrazol-1-yl]phenyl]-3-thiophenecarboxamide] | 55% | – | – | –
202 to 204 °C | O=C(Nc1ccc(-n2nc(C(F)(F)F)cc2C(F)(F)F)cc1)c1ccno1 [Example 240, N-[4-[3,5-bis(trifluoromethyl)-1H-pyrazol-1-yl]phenyl]-5-isoxazolecarboxamide] | 84% | 6.29 | – | –
113 to 116 °C | O=C(Nc1ccc(-n2nc(C(F)(F)F)cc2C(F)(F)F)cc1)C1CCCO1 (centres unmarked) [Example 241, N-[4-[3,5-bis(trifluoromethyl)-1H-pyrazol-1-yl]phenyl]tetrahydro-2-furancarboxamide] | – | – | 10% | –
82 to 84 °C | O=C(Nc1ccc(-n2nc(C(F)(F)F)cc2C(F)(F)F)cc1)C1CCCN1 (centres unmarked) [Example 242, N-[4-[3,5-bis(trifluoromethyl)-1H-pyrazol-1-yl]phenyl]-2-pyrrolidinecarboxamide] | – | – | 3% | –
193 to 194 °C | O=C(Nc1ccc(-n2nc(C(F)(F)F)cc2C(F)(F)F)cc1)C1CCOC1 (centres unmarked) [Example 243, N-[4-[3,5-bis(trifluoromethyl)-1H-pyrazol-1-yl]phenyl]tetrahydro-3-furancarboxamide] | 99% | 6.41 | – | –
213 to 214 °C | O=C(Nc1ccc(-n2nc(C(F)(F)F)cc2C(F)(F)F)cc1)c1cnns1 [Example 244, N-[4-[3,5-bis(trifluoromethyl)-1H-pyrazol-1-yl]phenyl]-1,2,3-thiadiazole-5-carboxamide] | 94% | 6.28 | – | –
183 to 184 °C | O=C(Nc1ccc(-n2nc(C(F)(F)F)cc2C(F)(F)F)cc1)c1ccnc(Cl)c1 [Example 245, N-[4-[3,5-bis(trifluoromethyl)-1H-pyrazol-1-yl]phenyl]-2-chloro-4-pyridinecarboxamide] | – | 6.55 | – | 100%
70 to 72 °C | CC(C)(C)OC(=O)N1CCCC1C(=O)Nc1ccc(-n2nc(C(F)(F)F)cc2C(F)(F)F)cc1 (centres unmarked) [Example 246, 1,1-Dimethylethyl 2-[[[4-[3,5-bis(trifluoromethyl)-1H-pyrazol-1-yl]phenyl]amino]carbonyl]-1-pyrrolidinecarboxylate] | – | – | 47% | –
198 to 199 °C | O=C(Nc1ccc(-n2nc(C(F)(F)F)cc2C(F)(F)F)cc1)c1ccc([N+](=O)[O-])o1 [Example 247, N-[4-[3,5-bis(trifluoromethyl)-1H-pyrazol-1-yl]phenyl]-5-nitro-2-furancarboxamide] | 97% | 6.43 | – | –
148 to 149 °C | Cn1cccc1C(=O)Nc1ccc(-n2nc(C(F)(F)F)cc2C(F)(F)F)cc1 [Example 248, N-[4-[3,5-bis(trifluoromethyl)-1H-pyrazol-1-yl]phenyl]-1-methyl-1H-pyrrole-2-carboxamide] | 100% | 6.84 | – | –
192 to 194 °C | O=C(Nc1ccc(-n2nc(C(F)(F)F)cc2C(F)(F)F)cc1)c1ccc(Cl)nc1 [Example 249, N-[4-[3,5-bis(trifluoromethyl)-1H-pyrazol-1-yl]phenyl]-6-chloro-3-pyridinecarboxamide] | 100% | 6.74 | – | –
119 to 120 °C | Cc1ccoc1C(=O)Nc1ccc(-n2nc(C(F)(F)F)cc2C(F)(F)F)cc1 [Example 252, N-[4-[3,5-bis(trifluoromethyl)-1H-pyrazol-1-yl]phenyl]-3-methyl-2-furancarboxamide] | – | – | 36% | –
182 to 184 °C | O=C(Nc1ccc(-n2nc(C(F)(F)F)cc2C(F)(F)F)cc1)c1ccc(Cl)s1 [Example 253, N-[4-[3,5-bis(trifluoromethyl)-1H-pyrazol-1-yl]phenyl]-5-chloro-2-thiophenecarboxamide] | 94% | 6.35 | – | –
172 to 173 °C | O=C1CCC(C(=O)Nc2ccc(-n3nc(C(F)(F)F)cc3C(F)(F)F)cc2)O1 (centres unmarked) [Example 254, N-[4-[3,5-bis(trifluoromethyl)-1H-pyrazol-1-yl]phenyl]tetrahydro-5-oxo-2-furancarboxamide] | – | – | 9% | –
164 to 165 °C | O=C(Nc1ccc(-n2nc(C(F)(F)F)cc2C(F)(F)F)cc1)c1csc([N+](=O)[O-])c1 [Example 257, N-[4-[3,5-bis(trifluoromethyl)-1H-pyrazol-1-yl]phenyl]-5-nitro-3-thiophenecarboxamide] | 100% | 6.41 | – | –
82 to 84 °C | CC(C)(C)OC(=O)N1CSCC1C(=O)Nc1ccc(-n2nc(C(F)(F)F)cc2C(F)(F)F)cc1 (centres unmarked) [Example 258, 1,1-Dimethylethyl 4-[[[4-[3,5-bis(trifluoromethyl)-1H-pyrazol-1-yl]phenyl]amino]carbonyl]-3-thiazolidinecarboxylate] | – | – | 16% | –
213 to 214 °C | COc1cc(C(=O)Nc2ccc(-n3nc(C(F)(F)F)cc3C(F)(F)F)cc2)cs1 [Example 259, N-[4-[3,5-bis(trifluoromethyl)-1H-pyrazol-1-yl]phenyl]-5-methoxy-3-thiophenecarboxamide] | – | – | 5% | –
